Assay results published in US20160045498A1, “METHODS OF TREATING DISEASES CHARACTERIZED BY EXCESSIVE WNT SIGNALLING” (THE WALTER AND ELIZA HALL INSTITUTE OF MEDICAL RESEARCH, priority 2013, published 2016).

Key:
intestinal tumours = test: Intestinal tumour burden after tamoxifen-induced conditional Apc deletion in Lgr5CreERT2;Apcfl/fl mice; format: in vivo; conditions: Lgr5CreERT2;Apcfl/fl mice, CYT387 30 mg/kg oral gavage
Description: e Quantification of intestinal tumour burden of mice using the Metamorph analysis tool (Barker et al., 2009) after tamoxifen-induced conditional Apc deletion in adult Lgr5^CreERT2;Apc^fl/fl mice that also received daily administration of AZD1480 (30 mg/kg) or vehicle during this time. (*p≦0.04; n=3 mice).
d Intestinal tumour burden 5 weeks after tamoxifen-induced conditional Apc deletion in adult Lgr5^CreERT2;Apc^fl/fl mice that also received daily administration of AZD1480 (Jak2i; 30 mg/kg) or vehicle during this time. Higher magnifications of the boxed areas are provided and arrows point to tubular adenomas whilst arrowheads point to micro-adenomas. Scale bars=1 mm.
10 week old Lgr5CreERT2;Apcfl/fl mice received four i.p injections with tamoxifen (10 mg/ml; 300 ul, 200 ul, 200 ul, 200 ul) over four consecutive days. Three days after the last injection, mice received daily oral gavages with either vehicle (tap water, pH 2.0) or CYT387 (30 mg/kg) for four weeks. Regime was 5 days treatment followed by 2 days off treatment.
Hematoxilin and Eosin-stained sections were scanned using an Aperio ScanScope XT (Aperio, USA) pathology slide scanner with a 20x PlanApo NA0.6 objective and areas of interest were extracted using Aperio ImageScope software v11.1.2.760. The area of individual tumors was outlined using MetaMorph v7.7.7 and standardized against the entire length of the colon section as described (Barker et al., 2009).

intestinal organoids = test: Organoid culture, crypt formation; format: cell-based, mice; conditions: S3I-201 7.5 μM from day 3 after seeding
Description: […] Arrows point to budding crypt-like structures. Scale bar=50 μm.
d Enumeration of crypts on individual organoids from experiment illustrated in FIG. 1c. (*p≦0.018; Two-sided t-test on triplicate cultures and repeated).
Crypts from small intestines were harvested, washed and were resuspended at 2000 crypts/ml of matrigel (BD Biosciences) and 50 μL was dispensed in each well of a 24-well plate. Once the matrigel had set, medium was added and the organoids cultured for seven days as described (Sato et al., 2009). Experiments were performed in triplicates and repeated.
Organoid cultures were imaged on a Nikon Ti-E microscope using DIC contrast with a 10x PlanApo NA0.3 objective. A focal stack of images was collected (10 μm apart) and processed through the Best Focus function of MetaMorph v7.7.7 (Molecular Devices, USA) to generate the final image of individual Organoids.

SW480^APC cells [1] = test: Soft agar colony growth assay, SW480APC; format: cell-based, human; conditions: 10 days, AZD1480 1 μM, S3I-201 50 μM, IL11 10 ng/ml
Description: (§1) e Photograph of SW480 and SW480^APC CRC cells grown for 10 days under colony forming conditions in soft agar in the presence of vehicle or 1 μM of Jak2 inhibitor AZD1480 (Jak2i) (Scale bar=200 μm)
(§2) f Colony forming capacity of an isogenic pair of SW480 cells scored 10 days after the indicated treatment. (*p≦0.04; triplicate cultures and repeated).
(§3) SW480 and SW480^APC cells (Faux et al., 2004) were seeded in 2 ml of RPMI media supplemented with 10% FBS and 1% penicillin/streptomycin in 35 mm culture dishes at a density of 2×10^5 cells per dish. Three days later cultures were exposed to AZD1480 (1 μM) for 15 min. Co-immunofluorescence was then performed with antibodies to rabbit phospho-Stat3 (Tyr705, Santa Cruz #9134s, 1:200 dilution) and mouse β-catenin (Transduction Laboratories, 1:400). Colony formation assays of SW480 cells in soft agar were performed as described (Faux et al., 2004) in the presence of either AZD1480, (1 μM), the Stat3 inhibitor S3I-201 (Biovision, 50 μM) or recombinant human IL11 (Genetics Institute, 10 ng/ml). All experiments were performed in triplicates and repeated at least once. Vehicle was methylcellulose.

SW480 cells [2] = test: Soft agar colony growth assay, SW480; format: cell-based, human; conditions: SW480, 10 days; AZD1480 1 μM, S3I-201 50 μM, IL11 10 ng/ml
Description: as §1, §2, §3

TYK2 = TYK2 (Homo sapiens, UniProt P29597); conditions: WO2012062704; cited from earlier work
SW480^APC cells [3] = test: p-STAT3 immunofluorescence and SOCS3 RT-qPCR in SW480APC cells; format: cell-based, human; conditions: RT-qPCR, AZD1480 1 μM, IL11 10 ng/ml
Description: (§4) d Immunofluorescence staining for β-CATENIN or tyrosine-705 phosphorylated STAT3 in an isogenic pair of SW480 cells grown in the presence of 1 μM AZD1480 (Jak2i) or vehicle. SW480 cells are APC mutant and lack expression of functional APC protein, while SW480^APC cells have been reconstituted to express wild-type APC. Scale bar=20 μm.
(§5) g RT-qPCR expression analysis for the STAT3 target gene SOCS3 in SW480 and SW480^APC CRC cells grown for 10 days under colony forming conditions in soft agar in the presence of the indicated treatment. Expression in the vehicle-treated cultures was arbitrarily set as 1. (*p≦0.04; triplicate cultures in each of two repeats).
as §3
(§6) Gene expression analysis by RT-qPCR was performed using the SybrGreen method (ABI) as described previously (Phesse et al., 2008). Fold change was calculated using the 2^−ΔΔCT method (Livak et al., 2001). Protein expression was analysed by Western blot by transferring SDS-PAGE separated protein lysates to nitrocellulose membrane and blocked either in 5% non-fat milk powder and probed with antibodies detecting p16 (Santa Cruz; #sc-467), Bmi1 (Millipore #[…]), Actin (Sigma; #A2066) or Gapdh (Santa Cruz; #sc-69778). All antibodies were diluted 1:1000 in BSA or non-fat milk powder and incubations were performed overnight.

SW480 cells [4] = test: p-STAT3 / β-CATENIN immunofluorescence and SOCS3 RT-qPCR in SW480 cells; format: cell-based, human; conditions: SW480, RT-qPCR; AZD1480 1 μM, IL11 10 ng/ml
Description: as §4, §5, §3, §6

IECs = test: RT-qPCR of IECs after i.p. injection of recombinant IL-11; format: in vivo; conditions: gp130^F/F mice, 30 minutes after i.p. 5 μg recombinant IL-11
Description: a RT-qPCR expression analysis for Socs3 and Bmi1 in IECs isolated from gp130^F/F mice 30 minutes after an i.p. injection of 5 μg of recombinant IL-11 (p=0.04; n=3 mice).
as §6

Chain of TYK2 (P29597 whole entry, species assumed): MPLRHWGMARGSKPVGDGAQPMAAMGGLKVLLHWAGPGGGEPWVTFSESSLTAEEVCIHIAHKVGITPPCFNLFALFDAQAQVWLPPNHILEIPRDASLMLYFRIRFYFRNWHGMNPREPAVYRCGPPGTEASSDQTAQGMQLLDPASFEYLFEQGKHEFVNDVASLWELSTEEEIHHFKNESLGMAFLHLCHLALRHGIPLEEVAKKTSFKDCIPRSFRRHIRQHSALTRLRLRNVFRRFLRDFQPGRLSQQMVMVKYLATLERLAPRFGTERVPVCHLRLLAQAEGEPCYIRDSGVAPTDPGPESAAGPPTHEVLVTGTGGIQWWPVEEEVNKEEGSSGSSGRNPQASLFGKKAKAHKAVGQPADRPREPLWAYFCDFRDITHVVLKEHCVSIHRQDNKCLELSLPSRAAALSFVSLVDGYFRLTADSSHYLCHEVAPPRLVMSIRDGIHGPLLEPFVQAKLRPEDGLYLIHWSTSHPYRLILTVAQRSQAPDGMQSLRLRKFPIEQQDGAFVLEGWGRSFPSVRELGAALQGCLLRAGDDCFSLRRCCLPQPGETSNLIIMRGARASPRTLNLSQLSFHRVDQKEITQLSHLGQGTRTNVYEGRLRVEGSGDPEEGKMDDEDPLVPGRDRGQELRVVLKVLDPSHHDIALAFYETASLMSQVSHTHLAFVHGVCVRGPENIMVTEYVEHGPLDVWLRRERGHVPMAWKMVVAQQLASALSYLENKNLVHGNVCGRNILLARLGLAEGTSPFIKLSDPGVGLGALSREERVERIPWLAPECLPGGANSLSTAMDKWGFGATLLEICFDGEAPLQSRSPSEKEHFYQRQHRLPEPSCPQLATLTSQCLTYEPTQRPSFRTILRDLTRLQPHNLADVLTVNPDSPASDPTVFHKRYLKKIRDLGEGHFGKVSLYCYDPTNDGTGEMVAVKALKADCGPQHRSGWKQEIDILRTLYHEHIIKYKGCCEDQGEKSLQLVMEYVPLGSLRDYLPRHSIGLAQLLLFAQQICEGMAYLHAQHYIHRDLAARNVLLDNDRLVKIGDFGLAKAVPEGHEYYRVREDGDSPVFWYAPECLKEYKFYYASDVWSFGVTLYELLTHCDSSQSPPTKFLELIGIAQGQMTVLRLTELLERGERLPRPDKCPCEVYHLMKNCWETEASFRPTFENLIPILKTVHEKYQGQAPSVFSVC

N#CCNC(=O)c1ccc(-c2ccnc(Nc3ccc(N4CCOCC4)cc3)n2)cc1 [CYT387]
morphology of lesions (intestinal tumours; 4 weeks): retained the morphology of the growth arrested microadenomas
intestinal tumour burden (histological assessment) (intestinal tumours; 4 weeks (5 days on, 2 off), vehicle: large tubular adenomas): few small emerging lesion

Cc1ccc(S(=O)(=O)OCC(=O)Nc2ccc(C(=O)O)c(O)c2)cc1 [S3I-201]
crypt formation of organoids (intestinal organoids): reduced
colony formation in soft agar (SW480^APC cells [1]): did not affect colony formation
colony formation in soft agar (SW480 cells [2]): strongly impaired

COc1ccc(-c2nc(NC(=O)C3CC3)ncc2C)cc1F
selectivity for TYK2 (TYK2): > 100 fold

B1: IL-11: recombinant gp130 cytokine IL-11 (Genetics Institute) (protein, UniProt P20809 22-199, looked up)
Interleukin-11: PGPPPGPPRVSPDPRAELDSTVLLTRSLLADTRQLAAQLRDKFPADGDHNLDSLPTLAMSAGALGALQLPGVLTRLRADLLSYLRHVQWLRRAGGSSLKTLEPELGTLQARLDRLLRRLQLLMSRLALPQPPPDPPAPPLAPPSSAWGGIRAAHAILGGLHLTLDWAVRGLLLLKTRL
SOCS3 expression (SW480^APC cells [3]): increased SOCS3 expression
colony formation in soft agar (SW480^APC cells [1]): enhanced colony formation
SOCS3 expression (SW480 cells [4]): increased SOCS3 expression
Bmi1 expression in IECs (IECs): rapidly induced
Socs3 expression in IECs (IECs): rapidly induced
colony formation in soft agar (SW480 cells [2]): enhanced colony formation
